Data: patent US7947275B2 (Signe Biopharma, Inc., priority 2000, dated 2011)
Where “and” joins values, the source holds several entries; their conditions need not be identical. Equal entries are not always repeated.

Target: T1, estrogen receptors of intact T47D cells (Homo sapiens, UniProt P03372)
T1 construct: endogenous in cells; host or cells: T47D human breast cancer cells
Assay: Displacement of ^3H-E2 binding to intact T47D cells
Settings: 5 nM ^3H-E2, two hours at 37° C.; r9-r14: 2.5, 5.0, 50, 250, 500, 1000 nM Unlabeled E2; r15-r19: 1, 2, 4, 5, 16 mg/L Phenol Red

- Percent of Control: 102% and 111% and 94% and 99% and 110%
Structure (SMILES): O=S1(=O)OC(c2ccc(O)cc2)(c2ccc(O)cc2)c2ccccc21 [Phenol Red]
